Results as given in patent US6251882A, “Alkyl ketones as potent anti-cancer agents” (Parker Hughes Institute, priority 1999, dated 2001).

Experiments:
Format in all cases: cell-based, human
[1] = test system: U373 glioblastoma cells; assay: Adhesion assay to ECM proteins, U373; conditions: laminin, fibronectin or type IV collagen; 16 hours (FIG. 7)
Procedure: (§1) A human brain tumor cell line derived from an adult patient with glioblastoma, U-373 MG (Cat. #HTB-17) and MDA-MB-231 breast cancer cells (Cat. #HTB-26) were obtained from American Type Culture Collection (ATCC, Manassas, Va.) and maintained in liquid culture using DMEM supplemented with 10% fetal bovine serum and antibiotics. Fibroblast conditioned medium was used as a source of chemoattractant in vitro invasion assays. Conditioned medium was prepared as described previously (Albini, et al., 1987, Cancer Res., 47:3239-3245). […]
(§2) In adhesion assays, cells were centrifuged, washed twice with serum-free DMEM, counted and resuspended in serum-free DMEM to a final concentration of 2.5×10^5 cells/ml. […] The adherent fraction was quantitated using MTT (3-[4,5-dimethylthiazol-2-yl]-2,5-diphenyltetrazolium bromide) assays. […] The absorbance of each well was measured in a microplate reader (Labsystems) at […] and a reference wavelength of 690 nm. […] The adherent fraction of cells treated with HI-131 was compared to the DMSO-treated control cells and the percent adhesion relative to the control was determined.
(§3) Each treatment condition was evaluated in duplicate in 3 independent experiments. The IC50 values were calculated by non-linear regression analysis.

[2] = test system: MDA-MB-231 breast cancer cells; assay: Cell invasion assay (Matrigel-coated Boyden chambers), MDA-MB-231; conditions: through Matrigel matrix, 2.5 μM to 25 μM, 48 hours (FIG. 4)
Procedure: (§4) The in vitro invasiveness of MDA-MB-231 breast cancer cells and U373 glioblastoma cells was assayed using a previously published method which employs Matrigel-coated Costar 24-well transwell cell culture chambers ("Boyden chambers") with 8.0-μm-pore polycarbonate filter inserts (Albini, et al., 1987, Cancer Res., 47:3239-3245). The chamber filters were coated with 50 μg/ml of Matrigel matrix, incubated overnight at room temperature under a laminar flow hood and stored at 4° C. Matrigel matrix is made up of several components of the extracellular matrix (ECM), including collagens, laminin and proteo-glycans.
(§5) On the day of the experiment, the coated inserts were rehydrated with 0.5 ml serum-free DMEM containing 0.1% bovine serum albumin for 1-2 hours. […] The cells were trypsinized, washed twice with serum-free DMEM containing BSA, counted and resuspended at 1×10^5 cells/ml. […] The invasive cells that migrated to the lower side of the filter were fixed, stained with Hema-3 solutions and counted under microscope. Five to 10 random fields per filter were counted to determine the mean (SE) values for the invasive fraction. The invasive fractions of cells treated with HI-131 were compared to those of DMSO treated control cells and the percent invading relative to the control was determined using the formula: [formula]
(§6) Each treatment condition was evaluated in duplicate in 3 independent experiments. […]

[3] = test system: NALM-6 cells; assay: Apoptosis induction, NALM-6 cells (in situ TUNNEL, confocal microscopy)
Procedure: The ability of HI-131 to induce apoptosis cells was evaluated in human leukemia in NALM-6 cells and primary leukemic cells from 2 patients. Cells were treated with 50 μM compound HI-131 for 24 hours. After incubation, the cells were harvested and analyzed for apoptosis by in situ TUNNEL analysis and confocal laser scanning microscopy as described in Sudbeck et al., 1999, Clin Cancer Res., 5:1589-82. Controls were treated with vehicle alone.
Induction of apoptosis was further evaluated in primary leukemic cells and established NALM-6 and MOLT-3 cell lines following treatment with HI-131.

[4] = test system: MDA-MB-231 breast cancer cells; assay: Adhesion assay to ECM proteins, MDA-MB-231; conditions: laminin, fibronectin or type IV collagen; 16 hours (FIG. 6)
Procedure: as §1, §2, §3

[5] = test system: U373 glioblastoma cells; assay: Cell invasion assay (Matrigel-coated Boyden chambers), U373; conditions: through Matrigel matrix, 1 μM to 25 μM, 48 hours (FIG. 5)
Procedure: as §4, §5, §6

## CCCCCCCCCCCCSC[C@H](NC(C)=O)C(=O)CCl [HI-131, N-Ac-S-dodecyl-Cys chloromethyl ketone]
[1]
  loss of adhesion, U373: dose-dependent loss of adhesion
[2]
  inhibition of invasion, MDA-MB-231: inhibited the invasion
[3]; 50 μM, 24 hours
  apoptosis induction (TUNNEL/confocal), NALM-6: greatly induced apoptosis
[3]; Homo sapiens, NALM-6, 24 h, vs vehicle control (FIG. 3)
  fold induction at 50 µM: ~20
[4]
  loss of adhesion, MDA-MB-231: dose-dependent loss of adhesion
[5]
  inhibition of invasion, U373: inhibited the invasion
